Test results reported in ChEMBL document CHEMBL1201862, “PubChem BioAssay data set” (2004).
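1) Cells in 96-well plates. 2) Compound, 48 h, 5 concentrations. 3) Linear interpolation between surrounding doses. 4) Unreached endpoint = highest concentration. The concentration for 50% growth inhibition is given as GI50.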 Calls of active or inactive are those of the source. Cut-off read from the data, not from the text of the source: active = GI50 up to about 1.1 µM and inactive = higher.

What was measured:
Assay in all cases: NCI anticancer screen, dose series, 48 h
CAKI-1 = system: CAKI-1
UO-31 = system: UO-31
K562 = system: K562
HCC 2998 = system: HCC 2998
OVCAR-4 = system: OVCAR-4
T47D = system: T47D
SNB-75 = system: SNB-75
MDA-N = system: MDA-N
SF-295 = system: SF-295
SK-OV-3 = system: SK-OV-3
Malme-3M = system: Malme-3M
BT-549 = system: BT-549
UACC-257 = system: UACC-257
MOLT-4 = system: MOLT-4
NCI-H522 = system: NCI-H522
NCI/ADR-RES = system: NCI/ADR-RES
KM12 = system: KM12
SK-MEL-28 = system: SK-MEL-28
SF-539 = system: SF-539
A498 = system: A498
OVCAR-5 = system: OVCAR-5
EKVX = system: EKVX
SK-MEL-5 = system: SK-MEL-5
MCF7 = system: MCF7
SW-620 = system: SW-620
HL-60 = system: HL-60
MDA-MB-435 = system: MDA-MB-435
UACC-62 = system: UACC-62
SK-MEL-2 = system: SK-MEL-2
OVCAR-3 = system: OVCAR-3
PC-3 = system: PC-3
CCRF-CEM = system: CCRF-CEM
MDA-MB-231 = system: MDA-MB-231
A549 = system: A549
HOP-62 = system: HOP-62
U-251 = system: U-251
ACHN = system: ACHN
SN12C = system: SN12C
LOX IMVI = system: LOX IMVI
OVCAR-8 = system: OVCAR-8
HCT-116 = system: HCT-116
NCI-H226 = system: NCI-H226
NCI-H23 = system: NCI-H23
786-0 = system: 786-0
TK-10 = system: TK-10
RPMI-8226 = system: RPMI-8226
HCT-15 = system: HCT-15
HT-29 = system: HT-29
IGROV-1 = system: IGROV-1
COLO 205 = system: COLO 205
M14 = system: M14
SR = system: SR
SNB-19 = system: SNB-19
HOP-92 = system: HOP-92
SF-268 = system: SF-268
DU-145 = system: DU-145
Hs-578T = system: Hs-578T
RXF 393 = system: RXF 393
NCI-H460 = system: NCI-H460

## O=C(O)c1ccccc1SCc1cccc2c(=O)c3ccc(Cl)cc3oc12
CAKI-1
  GI50: > 50 µM (inactive)
UO-31
  GI50: > 50 µM (inactive)
K562
  GI50: 27.7 µM (inactive)
HCC 2998
  GI50: > 50 µM (inactive)
OVCAR-4
  GI50: 41.5 µM (inactive)
T47D
  GI50: > 50 µM (inactive)
SNB-75
  GI50: 15.6 µM (inactive)
MDA-N
  GI50: > 50 µM (inactive)
SF-295
  GI50: 20.2 µM (inactive)
SK-OV-3
  GI50: > 50 µM (inactive)
Malme-3M
  GI50: 10.7 µM (inactive)
BT-549
  GI50: 48.8 µM (inactive)
UACC-257
  GI50: > 50 µM (inactive)
MOLT-4
  GI50: > 50 µM (inactive)
NCI-H522
  GI50: 29.2 µM (inactive)
NCI/ADR-RES
  GI50: > 50 µM (inactive)
KM12
  GI50: > 50 µM (inactive)
SK-MEL-28
  GI50: > 50 µM (inactive)
SF-539
  GI50: 19.5 µM (inactive)
A498
  GI50: > 50 µM (inactive)
OVCAR-5
  GI50: > 50 µM (inactive)
EKVX
  GI50: > 50 µM (inactive)
SK-MEL-5
  GI50: > 50 µM (inactive)
MCF7
  GI50: > 50 µM (inactive)
SW-620
  GI50: > 50 µM (inactive)
HL-60
  GI50: 11 µM (inactive)
MDA-MB-435
  GI50: > 50 µM (inactive)
UACC-62
  GI50: 21.4 µM (inactive)
SK-MEL-2
  GI50: 46.9 µM (inactive)
OVCAR-3
  GI50: > 50 µM (inactive)
PC-3
  GI50: 26.8 µM (inactive)
CCRF-CEM
  GI50: > 50 µM (inactive)
MDA-MB-231
  GI50: > 50 µM (inactive)
A549
  GI50: > 50 µM (inactive)
HOP-62
  GI50: 12.9 µM (inactive)
U-251
  GI50: 17.5 µM (inactive)
ACHN
  GI50: 32.4 µM (inactive)
SN12C
  GI50: > 50 µM (inactive)
LOX IMVI
  GI50: > 50 µM (inactive)
OVCAR-8
  GI50: > 50 µM (inactive)
HCT-116
  GI50: 36.1 µM (inactive)
NCI-H226
  GI50: > 50 µM (inactive)
NCI-H23
  GI50: 35.3 µM (inactive)
786-0
  GI50: 25.3 µM (inactive)
TK-10
  GI50: 29.8 µM (inactive)
RPMI-8226
  GI50: > 50 µM (inactive)
HCT-15
  GI50: > 50 µM
HT-29
  GI50: > 50 µM (inactive)
IGROV-1
  GI50: 49.5 µM (inactive)
COLO 205
  GI50: > 50 µM (inactive)
M14
  GI50: > 50 µM (inactive)
SR
  GI50: 39 µM (inactive)

## CCNC(=O)Nc1cccc(C)n1
CAKI-1
  GI50: > 100 µM (inactive)
UO-31
  GI50: > 100 µM (inactive)
K562
  GI50: > 100 µM (inactive)
SNB-19
  GI50: > 100 µM (inactive)
HOP-92
  GI50: > 100 µM (inactive)
SF-268
  GI50: > 100 µM (inactive)
HCC 2998
  GI50: > 100 µM (inactive)
OVCAR-4
  GI50: > 100 µM (inactive)
DU-145
  GI50: > 100 µM (inactive)
T47D
  GI50: > 100 µM (inactive)
SNB-75
  GI50: 68.9 µM (inactive)
MDA-N
  GI50: > 100 µM (inactive)
SF-295
  GI50: > 100 µM (inactive)
SK-OV-3
  GI50: > 100 µM (inactive)
Malme-3M
  GI50: > 100 µM (inactive)
BT-549
  GI50: > 100 µM (inactive)
UACC-257
  GI50: > 100 µM (inactive)
Hs-578T
  GI50: > 100 µM (inactive)
MOLT-4
  GI50: > 100 µM (inactive)
NCI-H522
  GI50: > 100 µM (inactive)
KM12
  GI50: > 100 µM (inactive)
SK-MEL-28
  GI50: > 100 µM (inactive)
SF-539
  GI50: > 100 µM (inactive)
A498
  GI50: > 100 µM (inactive)
OVCAR-5
  GI50: > 100 µM (inactive)
EKVX
  GI50: 15.7 µM (inactive)
SK-MEL-5
  GI50: > 100 µM (inactive)
MCF7
  GI50: > 100 µM (inactive)
SW-620
  GI50: > 100 µM (inactive)
HL-60
  GI50: 67.8 µM (inactive)
MDA-MB-435
  GI50: > 100 µM (inactive)
UACC-62
  GI50: 99.1 µM (inactive)
RXF 393
  GI50: > 100 µM (inactive)
OVCAR-3
  GI50: > 100 µM (inactive)
PC-3
  GI50: > 100 µM (inactive)
CCRF-CEM
  GI50: > 100 µM (inactive)
MDA-MB-231
  GI50: > 100 µM (inactive)
A549
  GI50: > 100 µM (inactive)
HOP-62
  GI50: 91.4 µM (inactive)
U-251
  GI50: > 100 µM (inactive)
ACHN
  GI50: > 100 µM (inactive)
SN12C
  GI50: > 100 µM (inactive)
OVCAR-8
  GI50: > 100 µM (inactive)
HCT-116
  GI50: > 100 µM (inactive)
NCI-H226
  GI50: > 100 µM (inactive)
NCI-H460
  GI50: > 100 µM (inactive)
NCI-H23
  GI50: > 100 µM (inactive)
786-0
  GI50: > 100 µM (inactive)
TK-10
  GI50: > 100 µM (inactive)
HT-29
  GI50: > 100 µM (inactive)
IGROV-1
  GI50: > 100 µM (inactive)
COLO 205
  GI50: > 100 µM (inactive)
M14
  GI50: > 100 µM (inactive)
SR
  GI50: > 100 µM (inactive)
